Measured values as given in PMC6979384, “Characterization of the plant homeodomain (PHD) reader family for their histone tail interactions” (Epigenetics & Chromatin, 2020).

Tests used:
Experiment in all cases: Histone peptide microarray
Type in all cases: binding, human
DPF2 (PPC2W2) = system: DPF2 (PPC2W2)
Summary of the method: (§1)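 Histone peptide library (293 synthetic peptides, single/combinatorial PTMs) arrayed and probed with 0.5 μM purified GST-PHD domain; optimized protocol; quadruplicate mean and SD reported.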

KDM5A (1) = system: KDM5A (1)
Summary of the method: as §1

KDM4C (TTP) = system: KDM4C (TTP)
Summary of the method: as §1

KDM5B (1) = system: KDM5B (1)
Summary of the method: as §1

KDM5A (3) = system: KDM5A (3)
Summary of the method: as §1

ING1 = system: ING1
Summary of the method: as §1

RAG2 = system: RAG2
Summary of the method: as §1

PHF23 = system: PHF23
Summary of the method: as §1

KDM5B (3) = system: KDM5B (3)
Summary of the method: as §1

PHF21A = system: PHF21A
Summary of the method: as §1

MORC3 (CW) = system: MORC3 (CW)
Summary of the method: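 GST-tagged PHD readers, 0.5 μM, probed on a microarray of 293 synthetic histone peptides carrying single or combinatorial PTMs (optimized Petell protocol). Signals are averaged over 4 replicates and expressed as relative binding.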

PHF2 = system: PHF2
Summary of the method: as §1

SP140L = system: SP140L
Summary of the method: as §1

ING3 = system: ING3
Summary of the method: as §1

AIRE (PP) = system: AIRE (PP)
Summary of the method: as §1

PHRF1 (RP) = system: PHRF1 (RP)
Summary of the method: as §1

PHF13 = system: PHF13
Summary of the method: as §1

ING2 = system: ING2
Summary of the method: as §1

KDM7A = system: KDM7A
Summary of the method: as §1

CHD5 (PCC) = system: CHD5 (PCC)
Summary of the method: as §1

BAZ2B = system: BAZ2B
Summary of the method: as §1

TAF3 = system: TAF3
Summary of the method: as §1

TRIM66 (PB) = system: TRIM66 (PB)
Summary of the method: as §1

MLL5 = system: MLL5
Summary of the method: as §1

CHD4 (PPCC) = system: CHD4 (PPCC)
Summary of the method: as §1

PHF8 = system: PHF8
Summary of the method: as §1

CHD5 (PPCC) = system: CHD5 (PPCC)
Summary of the method: as §1

ING4 = system: ING4
Summary of the method: as §1

ING5 = system: ING5
Summary of the method: as §1

DIDO1 = system: DIDO1
Summary of the method: as §1

BPTF (PB) = system: BPTF (PB)
Summary of the method: as §1

## H3R2me2s + K4me2: H3 1-20
DPF2 (PPC2W2); GST-tagged DPF2 (PPC2W2 = Dual PHD + C2W2-type Zn-finger), histone peptide array, arrays performed twice, n of 4
  Array Heatmap signal, DPF2 (PPC2W2): 0.6255
KDM5A (1); GST-tagged KDM5A (1), histone peptide array, arrays performed twice, n of 4
  Array Heatmap signal, KDM5A (1): 0.4761
KDM4C (TTP); GST-tagged KDM4C (TTP = Tandem Tudor domain + PHD), histone peptide array, arrays performed twice, n of 4
  Array Heatmap signal, KDM4C (TTP): 0.5629
KDM5B (1); GST-tagged KDM5B (1), histone peptide array, arrays performed twice, n of 4
  Array Heatmap signal, KDM5B (1): 0.7544
KDM5A (3); GST-tagged KDM5A (3), histone peptide array, arrays performed twice, n of 4
  Array Heatmap signal, KDM5A (3): 0.7167
ING1; GST-tagged ING1, histone peptide array, arrays performed twice, n of 4
  Array Heatmap signal, ING1: 0.5374
RAG2; GST-tagged RAG2, histone peptide array, arrays performed twice, n of 4
  Array Heatmap signal, RAG2: 0.4992
PHF23; GST-tagged PHF23, histone peptide array, arrays performed twice, n of 4
  Array Heatmap signal, PHF23: 0.6298
KDM5B (3); GST-tagged KDM5B (3), histone peptide array, arrays performed twice, n of 4
  Array Heatmap signal, KDM5B (3): 0.725
PHF21A; GST-tagged PHF21A, histone peptide array, arrays performed twice, n of 4
  Array Heatmap signal, PHF21A: 0.4639
MORC3 (CW); GST-tagged MORC3 (CW = CW-type Zn-finger), histone peptide array, arrays performed twice, n of 4
  Array Heatmap signal, MORC3 (CW): 0.7987
PHF2; GST-tagged PHF2, histone peptide array, arrays performed twice, n of 4
  Array Heatmap signal, PHF2: 0.597
SP140L; GST-tagged SP140L, histone peptide array, arrays performed twice, n of 4
  Array Heatmap signal, SP140L: 0.3393
ING3; GST-tagged ING3, histone peptide array, arrays performed twice, n of 4
  Array Heatmap signal, ING3: 0.5515
AIRE (PP); GST-tagged AIRE (PP), histone peptide array, arrays performed twice, n of 4
  Array Heatmap signal, AIRE (PP): 0.4691
PHRF1 (RP); GST-tagged PHRF1 (RP), histone peptide array, arrays performed twice, n of 4
  Array Heatmap signal, PHRF1 (RP): 0.4714
PHF13; GST-tagged PHF13, histone peptide array, arrays performed twice, n of 4
  Array Heatmap signal, PHF13: 0.6897
ING2; GST-tagged ING2, histone peptide array, arrays performed twice, n of 4
  Array Heatmap signal, ING2: 0.6563
KDM7A; GST-tagged KDM7A, histone peptide array, arrays performed twice, n of 4
  Array Heatmap signal, KDM7A: 0.4256
CHD5 (PCC); GST-tagged CHD5 (PCC = PHD + Dual Chromodomain), histone peptide array, arrays performed twice, n of 4
  Array Heatmap signal, CHD5 (PCC): 0.8074
BAZ2B; GST-tagged BAZ2B, histone peptide array, arrays performed twice, n of 4
  Array Heatmap signal, BAZ2B: 0.454
TAF3; GST-tagged TAF3, histone peptide array, arrays performed twice, n of 4
  Array Heatmap signal, TAF3: 0.4
TRIM66 (PB); GST-tagged TRIM66 (PB = PHD + Bromodomain), histone peptide array, arrays performed twice, n of 4
  Array Heatmap signal, TRIM66 (PB): 0.6465
MLL5; GST-tagged MLL5, histone peptide array, arrays performed twice, n of 4
  Array Heatmap signal, MLL5: 0.5794
CHD4 (PPCC); GST-tagged CHD4 (PPCC = Dual PHD + Dual Chromodomain), histone peptide array, arrays performed twice, n of 4
  Array Heatmap signal, CHD4 (PPCC): 0.5835
PHF8; GST-tagged PHF8, histone peptide array, arrays performed twice, n of 4
  Array Heatmap signal, PHF8: 0.5813
CHD5 (PPCC); GST-tagged CHD5 (PPCC = Dual PHD + Dual Chromodomain), histone peptide array, arrays performed twice, n of 4
  Array Heatmap signal, CHD5 (PPCC): 0.5636
ING4; GST-tagged ING4, histone peptide array, arrays performed twice, n of 4
  Array Heatmap signal, ING4: 0.4666
ING5; GST-tagged ING5, histone peptide array, arrays performed twice, n of 4
  Array Heatmap signal, ING5: 0.3606
DIDO1; GST-tagged DIDO1, histone peptide array, arrays performed twice, n of 4
  Array Heatmap signal, DIDO1: 0.7352
BPTF (PB); GST-tagged BPTF (PB = PHD + Bromodomain), histone peptide array, arrays performed twice, n of 4
  Array Heatmap signal, BPTF (PB): 0.3673

## H3K23ac (1-32): H3 1-32
DPF2 (PPC2W2); DPF2 (PPC2W2), sheet "Array Heatmap", each array performed twice, total n = 4
  Array Heatmap value (peptide array signal): 0.7046
KDM5A (1); KDM5A (1), sheet "Array Heatmap", each array performed twice, total n = 4
  Array Heatmap value (peptide array signal): 0.4665
KDM4C (TTP); KDM4C (TTP), sheet "Array Heatmap", each array performed twice, total n = 4
  Array Heatmap value (peptide array signal): 0.4876
KDM5B (1); KDM5B (1), sheet "Array Heatmap", each array performed twice, total n = 4
  Array Heatmap value (peptide array signal): 0.696
KDM5A (3); KDM5A (3), sheet "Array Heatmap", each array performed twice, total n = 4
  Array Heatmap value (peptide array signal): 0.4863
ING1; ING1, sheet "Array Heatmap", each array performed twice, total n = 4
  Array Heatmap value (peptide array signal): 0.5079
RAG2; RAG2, sheet "Array Heatmap", each array performed twice, total n = 4
  Array Heatmap value (peptide array signal): 0.2372
PHF23; PHF23, sheet "Array Heatmap", each array performed twice, total n = 4
  Array Heatmap value (peptide array signal): 0.526
KDM5B (3); KDM5B (3), sheet "Array Heatmap", each array performed twice, total n = 4
  Array Heatmap value (peptide array signal): 0.4657
PHF21A; PHF21A, sheet "Array Heatmap", each array performed twice, total n = 4
  Array Heatmap value (peptide array signal): 0.4363
MORC3 (CW); MORC3 (CW), sheet "Array Heatmap", each array performed twice, total n = 4
  Array Heatmap value (peptide array signal): 0.4909
PHF2; PHF2, sheet "Array Heatmap", each array performed twice, total n = 4
  Array Heatmap value (peptide array signal): 0.4393
SP140L; SP140L, sheet "Array Heatmap", each array performed twice, total n = 4
  Array Heatmap value (peptide array signal): 0.3597
ING3; ING3, sheet "Array Heatmap", each array performed twice, total n = 4
  Array Heatmap value (peptide array signal): 0.4476
AIRE (PP); AIRE (PP), sheet "Array Heatmap", each array performed twice, total n = 4
  Array Heatmap value (peptide array signal): 0.5525
PHRF1 (RP); PHRF1 (RP), sheet "Array Heatmap", each array performed twice, total n = 4
  Array Heatmap value (peptide array signal): 0.68
PHF13; PHF13, sheet "Array Heatmap", each array performed twice, total n = 4
  Array Heatmap value (peptide array signal): 0.5924
ING2; ING2, sheet "Array Heatmap", each array performed twice, total n = 4
  Array Heatmap value (peptide array signal): 0.596
KDM7A; KDM7A, sheet "Array Heatmap", each array performed twice, total n = 4
  Array Heatmap value (peptide array signal): 0.3346
CHD5 (PCC); CHD5 (PCC), sheet "Array Heatmap", each array performed twice, total n = 4
  Array Heatmap value (peptide array signal): 0.6958
BAZ2B; BAZ2B, sheet "Array Heatmap", each array performed twice, total n = 4
  Array Heatmap value (peptide array signal): 0.4309
TAF3; TAF3, sheet "Array Heatmap", each array performed twice, total n = 4
  Array Heatmap value (peptide array signal): 0.2562
TRIM66 (PB); TRIM66 (PB), sheet "Array Heatmap", each array performed twice, total n = 4
  Array Heatmap value (peptide array signal): 0.6504
MLL5; MLL5, sheet "Array Heatmap", each array performed twice, total n = 4
  Array Heatmap value (peptide array signal): 0.5116
CHD4 (PPCC); CHD4 (PPCC), sheet "Array Heatmap", each array performed twice, total n = 4
  Array Heatmap value (peptide array signal): 0.5377
PHF8; PHF8, sheet "Array Heatmap", each array performed twice, total n = 4
  Array Heatmap value (peptide array signal): 0.3314
CHD5 (PPCC); CHD5 (PPCC), sheet "Array Heatmap", each array performed twice, total n = 4
  Array Heatmap value (peptide array signal): 0.5376
ING4; ING4, sheet "Array Heatmap", each array performed twice, total n = 4
  Array Heatmap value (peptide array signal): 0.4368
ING5; ING5, sheet "Array Heatmap", each array performed twice, total n = 4
  Array Heatmap value (peptide array signal): 0.3453
DIDO1; DIDO1, sheet "Array Heatmap", each array performed twice, total n = 4
  Array Heatmap value (peptide array signal): 0.6401
BPTF (PB); BPTF (PB), sheet "Array Heatmap", each array performed twice, total n = 4
  Array Heatmap value (peptide array signal): 0.3332
